Test results as given in US20260315476A1, “COMBINATION TREATMENT METHODS FOR CANCER WITH TP53 MUTATION” (HO'OLA THERAPEUTICS INC., priority 2022, published 2026).
Read-outs that look alike come from different tables or passages of the source.

Assays:
[1] = MCL patients treated with BTKi (e.g., ibrutinib) alone; cited from earlier work
[2] = system: mantle cell lymphoma (MCL); conditions: historical, cited from earlier work
[3] = system: mantle cell lymphoma (MCL); conditions: historical, cited from earlier work; remark: listed apart in the source
[4] = system: chronic lymphocytic leukemia (CLL); conditions: Byrd 2019, cited from earlier work
[5] = Treatment emergent adverse events, CLL Part 3; assay type: in vivo, human
Description: (§1) In Phase 2 study, patients were divided into two study groups. In study group 1 (Part 2), patients with R/R CLL, R/R MCL, and marginal zone lymphoma (MZL) were enrolled (CLL n=16, MCL n=21). The patients were treated with the recommended dosing regimen from Phase 1 study, that is, zilovertamab (600 mg) and ibrutinib at approved dose (420 mg CLL, 560 mg MCL and MZL). In study group 2 (Part 3), patients with R/R CLL (n=31) were enrolled and randomly treated with either zilovertamab in combination with ibrutinib or ibrutinib alone.

[6] = system: chronic lymphocytic leukemia (CLL); assay: Clinical response rates in CLL (Phase 1/2 study, Parts 1 & 2 and Part 3); assay type: in vivo, human; conditions: Part 3, TN
[7] = system: chronic lymphocytic leukemia (CLL); assay: Overall survival in CLL; assay type: in vivo, human; conditions: CLL patients
Description: (§2) In Phase 1 study (Part 1), patients with relapsed/refractory (R/R) mantle cell lymphoma (MCL) and R/R chronic lymphocytic leukemia/small lymphocytic lymphoma (CLL/SLL) were enrolled (CLL n=18, MCL n=12). 2, 4, 8, and 16 mg/kg and 300 mg and 600 mg doses of zilovertamab (formerly known as cirmtuzumab) were evaluated. Ibrutinib was added to the treatment after 1 month at dose of 420 mg for CLL, 560 mg for MCL. The recommended dosing regime was 600 mg of zilovertamab (i.v.) once every 2 weeks by three times and then once every 4 weeks in combination with ibrutinib at approved doses per indication (i.e., 420 mg for CLL, 560 mg for MCL).
as §1

[8] = system: mantle cell lymphoma (MCL); conditions: MCL Rule 2017, Relapsed/Refractory, N = 370; cited from earlier work
[9] = Patient disposition and overall tolerability; assay type: in vivo, human; conditions: CLL Part 3
Description: as §2, §1

[10] = system: chronic lymphocytic leukemia (CLL); assay: Clinical response rates in CLL (Phase 1/2 study, Parts 1 & 2 and Part 3); assay type: in vivo, human
Description: as §2, §1

[11] = system: mantle cell lymphoma (MCL); assay: Overall survival in MCL; assay type: in vivo, human; conditions: MCL patients
Description: as §2, §1

[12] = Rule 2019, No p53 mutation, N = 124
[13] = Rule 2019, p53 mutation, N = 20

C=CC(=O)N1CCC[C@@H](n2nc(-c3ccc(Oc4ccccc4)cc3)c3c(N)ncnc32)C1 [ibrutinib, 1-[(3R)-3[4-Amino-3-(4-phenoxyphenyl)-1H-pyrazolo[3,4-d]pyrimidin-1-yl]piperidin-1-yl]prop-2-en-1-one]
Grade 3 or 4 neutrophil decrease [1]: 29%
CR ([2]; Rule 2017, N = 370): 74 (20.0) n (%)
ORR ([2]; Rule 2017, N = 370): 234 (63.2) n (%)
PD ([2]; Rule 2017, N = 370): 86 (23.2) n (%)
CR [2, 12]: 31 (25.0) n (%)
ORR [2, 12]: 87 (70.2) n (%)
PR [2, 12]: 56 (45.2) n (%)
CR [2, 13]: 0 n (%)
ORR [2, 13]: 11 (55.0) n (%)
PR [2, 13]: 11 (55.0) n (%)
M PFS (95% CI) ([3]; Rule 2019, No p53 Mutation): 12.0 (7.1, 15.6)
M PFS (95% CI) ([3]; Rule 2019, p53 Mutation): 4.0 (2.1, 8.3)
Landmark PFS ([4]; 24 months, 1 or 2 prior systemic therapies): ~82%
Landmark PFS ([4]; 24 months, >2 prior systemic therapies): ~65%
Landmark PFS ([4]; 36 months, 1 or 2 prior systemic therapies): ~73%
Landmark PFS ([4]; 36 months, >2 prior systemic therapies): ~50%
Atrial Fibrillation, Grades 1-2 [5]: 1 (10.0) n (%)
Atrial Fibrillation, Grades ≥3 [5]: 1 (10.0) n (%)
Atrial Fibrillation, Overall [5]: 2 (20.0) n (%)
Back pain, Grades 1-2 [5]: 2 (20.0) n (%)
Back pain, Grades ≥3 [5]: 0 n (%)
Back pain, Overall [5]: 2 (20.0) n (%)
Constipation, Grades 1-2 [5]: 3 (30.0) n (%)
Constipation, Grades ≥3 [5]: 0 n (%)
Constipation, Overall [5]: 3 (30.0) n (%)
Contusion, Grades 1-2 [5]: 3 (30.0) n (%)
Contusion, Grades ≥3 [5]: 0 n (%)
Contusion, Overall [5]: 3 (30.0) n (%)
Coronavirus Infection, Grades 1-2 [5]: 1 (10.0) n (%)
Coronavirus Infection, Grades ≥3 [5]: 1 (10.0) n (%)
Coronavirus Infection, Overall [5]: 2 (20.0) n (%)
Diarrhea, Grades 1-2 [5]: 4 (40.0) n (%)
Diarrhea, Grades ≥3 [5]: 0 n (%)
Diarrhea, Overall [5]: 4 (40.0) n (%)
Dizziness, Grades 1-2 [5]: 3 (30.0) n (%)
Dizziness, Grades ≥3 [5]: 0 n (%)
Dizziness, Overall [5]: 3 (30.0) n (%)
Fall, Grades 1-2 [5]: 2 (20.0) n (%)
Fall, Grades ≥3 [5]: 0 n (%)
Fall, Overall [5]: 2 (20.0) n (%)
Fatigue, Grades 1-2 [5]: 2 (20.0) n (%)
Fatigue, Grades ≥3 [5]: 0 n (%)
Fatigue, Overall [5]: 2 (20.0) n (%)
Headache, Grades 1-2 [5]: 3 (30.0) n (%)
Headache, Grades ≥3 [5]: 1 (10.0) n (%)
Headache, Overall [5]: 4 (40.0) n (%)
Hematuria, Grades 1-2 [5]: 3 (30.0) n (%)
Hematuria, Grades ≥3 [5]: 0 n (%)
Hematuria, Overall [5]: 3 (30.0) n (%)
Hemoglobin decrease, Grades 1-2 [5]: 6 (60.0) n (%)
Hemoglobin decrease, Grades ≥3 [5]: 1 (10.0) n (%)
Hemoglobin decrease, Overall [5]: 7 (70.0) n (%)
Hypertension, Grades 1-2 [5]: 1 (10.0) n (%)
Hypertension, Grades ≥3 [5]: 1 (10.0) n (%)
Hypertension, Overall [5]: 2 (20.0) n (%)
Muscle spasms, Grades 1-2 [5]: 2 (20.0) n (%)
Muscle spasms, Grades ≥3 [5]: 0 n (%)
Muscle spasms, Overall [5]: 2 (20.0) n (%)
Nausea, Grades 1-2 [5]: 3 (30.0) n (%)
Nausea, Grades ≥3 [5]: 0 n (%)
Nausea, Overall [5]: 3 (30.0) n (%)
Neutrophils decrease, Grades 1-2 [5]: 1 (10.0) n (%)
Neutrophils decrease, Grades ≥3 [5]: 2 (20.0) n (%)
Neutrophils decrease, Overall [5]: 3 (30.0) n (%)
Platelets decrease, Grades 1-2 [5]: 7 (70.0) n (%)
Platelets decrease, Grades ≥3 [5]: 1 (10.0) n (%)
Platelets decrease, Overall [5]: 8 (80.0) n (%)
Pneumonia, Grades 1-2 [5]: 0 n (%)
Pneumonia, Grades ≥3 [5]: 2 (20.0) n (%)
Pneumonia, Overall [5]: 2 (20.0) n (%)
Pruritis, Grades 1-2 [5]: 2 (20.0) n (%)
Pruritis, Grades ≥3 [5]: 0 n (%)
Pruritis, Overall [5]: 2 (20.0) n (%)
Upper respiratory tract infection, Grades 1-2 [5]: 3 (30.0) n (%)
Upper respiratory tract infection, Grades ≥3 [5]: 0 n (%)
Upper respiratory tract infection, Overall [5]: 3 (30.0) n (%)
CR [6]: 0 n
PD [6]: 0 n
median OS [7]: not reached
median OS [8]: 25.0
Study discontinuation: Death [9]: 0 n
Complete Response (CR) ([10]; CLL Part 3): 1 (14.3) n (%)
Median Duration of response (95% CI) ([10]; CLL Part 3): NR (8.3, NE)
Overall Response Rate (ORR) ([10]; CLL Part 3): 7 (100.0) n (%)
Partial Response (PR) ([10]; CLL Part 3): 6 (85.7) n (%)
CR ([10]; Part 3, 1 Prior): 0 n
PD ([10]; Part 3, 1 Prior): 0 n
PD ([10]; Part 3, Overall): 0 n
CR ([10]; Part 3, ≥3 Prior): 0 n
Median DoR ([10]; Part 3, ≥3 Prior): 8.3 months
PD ([10]; Part 3, ≥3 Prior): 0 n
median OS [11]: not reached
